Assay results from patent US20060275769A1 (priority 2003, published 2006).
“Also recorded” adds a separate entry of the source.

Experiments:
KSHV-infected DMVEC [1] = assay: Inhibition of KSHV-induced spindle cell formation by PMO antisense gene silencing; format: cell-based, human; conditions: for effect on KSHV-induced spindle cell formation / phenotypic inhibition (in words): PMO antisense silencing; for Extent of PMO-induced Inhibition of Spindle Cell Formation / Phenotype Inhibition (inhibition of spindle cell formation): gene-specific PMO antisense
From the text: Antisense Gene Silencing using PMOs. […] Silencing of such genes precluded progression into the transformed phenotype when silencing occurred prior to transformation, or induced reversion to the normal state when silencing occurred after induction of the transformed state (see TABLE 2 below).
(§1) Introduction of antisense PMO into KSHV-infected DMVEC. Antisense PMO molecules, for delivery purposes, are typically converted to a paired duplex together with a partially complementary cDNA oligonucleotide in the weakly basic delivery reagent ethoxylated polyethylenimine (EPEI) (Summerton, supra). The anionic complex binds to the cell surface, is taken up by endocytosis and eventually released into the cytosol. A protocol for optimum uptake of antisense PMO in immortalized DMVEC was developed using a modification of the EPEI method. Briefly, uninfected, immortalized DMVECs were incubated for 3 hours at 37° C. with 0.6 nmol/well FITC-PMO complexed with EPEI according to the manufacturer's instructions (Genetools, LLC, One Summerton Way, Philomath, OR 97370) (e.g., 1.25 n Mol oligomer with 2.5 μl EPEI reagent per 35 mm dish, allowing for sufficient antisense uptake without non-specific EPEI-induced toxicity). The PMOs were labeled with FITC to allow for monitoring of loading efficiency by fluorescence microscopy.
(§2) Specifically, DMVEC were infected with KSHV, plated in 35 mm dishes and allowed to grow to about 90% confluence. For treatment, KSHV-infected cells were treated with the anti-c-Kit PMO-antisense oligomer-EPEI delivery reagent complex and incubated for 3 hours at 37° C. in serum-free medium to allow for oligomer uptake. A titration experiment testing a range of different oligomer/EPEI volumes was used to determine that loading 1.25 nmol oligomer with 2.5 μl EPEI reagent per 35 mm dish allowed efficient antisense uptake without non-specific EPEI-induced toxicity. Control (mock-treated) DMVEC cultures were loaded with EPEI reagent and sterile water or sterile water alone. Upon removal of the oligomer-EPEI solution, cell monolayers were rinsed in serum-free medium fed with complete medium and examined daily for one week by phase microscopy for evidence of phenotypic change.

KSHV-infected DMVEC [2] = assay: XTT proliferation assay after PMO loading; format: cell-based, human; conditions: PMO antisense silencing
Experimental: Proliferation assays, and loading of cells with PMOs. Proliferation of KSHV-infected DMVEC was quantified using an XTT (2,3-bis-(2-methoxy-4-nitro-5-sulfophenyl)-2H-tetrazolium-5-carboxanilide, disodium salt)-based assay. KSHV-infected cells were added to Primaria 96-well trays (Becton Dickinson) at 1×10^4 or 5×10^4 cells/well. XTT (Roche, Molecular Biochemicals, Indianapolis, Ind.) was added 48 hours later according to the manufacturer's instructions. Absorbance was read after 4 to 6 hours on a microplate reader.
Briefly, cells were plated in 96-well trays at a density approaching confluence (5×10^4 cells per well) in 100 μl of complete medium. PMOs were loaded the following day in a total of 100 μl (0.5 μl PMO, 0.5 μl EPEI, 49 μl H2O and 50 μl serum free medium) with reagent mixing as described by the manufacturer (GeneTools). Controls included a FITC PMO control oligonucleotide, EPEI only or H2O only. Each variable was performed in quadruplicate. Fresh complete medium was replaced 4 hours after loading. Cells were cultured for 4 days to allow for multi-layered cell growth post-confluence in the absence of any growth inhibition. XTT was added on day 4 of culture and the a bsorbance read 4 hrs later on a microplate reader. Cell proliferation (growth) values are given as percentage inhibition values, relative to cells without PMO, which are adjusted to 100%.

KSHV-infected DMVEC [3] = assay: Inhibition of KSHV-induced spindle cell formation by PMO antisense gene silencing; format: cell-based, human
KSHV-infected DMVEC [4] = conditions: cited from earlier work
KSHV-infected DMVEC [5] = conditions: cited from earlier work; remark: listed apart in the source
KSHV-infected DMVEC [6] = assay: Focus formation / contact inhibition by phase microscopy after c-Kit PMO loading; format: cell-based, human; conditions: 1.25 nmol PMO and 2.5 μl EPEI per 35 mm dish, one week post-loading
Experimental: Proof of principal for target validation; silencing of c-Kit gene expression.
as §2

immortalized DMVEC = assay: Uptake and persistence of FITC-labeled PMO by fluorescence microscopy; format: cell-based, human; conditions: FITC-labeled PMO with EPEI, at 3 hours
From the text: as §1
Cellular distribution of introduced FITC-labeled POM antisense molecules. […] Specifically, the c Kit antisense PMO molecules were initially concentrated in intracellular vesicles (endosomes) at 3 hours in about 70% of the cells, and distributed within the cytoplasm at 66 hours.

Molecule | effect on KSHV-induced spindle cell formation / phenotypic inhibition (in words) (KSHV-infected DMVEC [1]) | Extent of PMO-induced Inhibition of Spindle Cell Formation (KSHV-infected DMVEC [1]) | Phenotype Inhibition (inhibition of spindle cell formation) (KSHV-infected DMVEC [1]) | inhibition of KSHV-induced cellular proliferation (in words) (KSHV-infected DMVEC [2]) | also measured
AGCTTCATGTTGGAGGTGTTCG (all phosphorodiamidate morpholino (PMO)) [IFACTOR] | little or no affect on KSHV-induced spindle cell formation | none | None | relatively little or no significant inhibition | 
GGCTCCATCTTGGGCTCTGGGCTCC [FLJ14103] | fully reversed spindle cell formation | full |  |  | 
AGCTCGTGCTCTGCACACTCTGCAT (all phosphorodiamidate morpholino (PMO)) [NOV] | fully reversed spindle cell formation | full | Full |  | 
AGCATGTCACGCACAGTGGCCTCAT (all phosphorodiamidate morpholino (PMO)) [ANGPTL2] | intermediate inhibitory effects | intermediate | Intermediate |  | 
Osteopontin |  |  | None | relatively little or no significant inhibition | 
GAAGAGATGCAGATCCATCGTTCTG (all phosphorodiamidate morpholino (PMO)) [RDC-1] | fully reversed spindle cell formation | full | Full | substantial inhibition of KSHV-induced cellular proliferation | effect on KSHV-induced spindle cell formation / phenotypic inhibition (in words) (KSHV-infected DMVEC [3]; listed as RDC-1-specific PMO): full phenotypic inhibition
Cc1ccc(NC(=O)c2ccc(CN3CCN(C)CC3)cc2)cc1Nc1nccc(-c2cccnc2)n1 [STI 571] |  |  |  |  | phenotype after removal of the compound (KSHV-infected DMVEC [4]; removal of STI 571, even after exposure to a 10 μM dose): regeneration of the transformed phenotype; focus formation (KSHV-infected DMVEC [4]; treatment to inhibit endogenous c-Kit tyrosine kinase activity): focus formation is inhibited; nonspecific cytotoxicity (cell viability controls) (KSHV-infected DMVEC [5]): not due to nonspecific cytotoxicity; proliferative response of KSHV-infected DMVEC to exogenous SCF (KSHV-infected DMVEC [5]; exogenous SCF): inhibited
GTCAGTTTACTCATGTCATCTATTG (all phosphorodiamidate morpholino (PMO)) [KIAA0367] | intermediate inhibitory effects | intermediate | Intermediate | substantial inhibition of KSHV-induced cellular proliferation | effect on KSHV-induced spindle cell formation / phenotypic inhibition (in words) (KSHV-infected DMVEC [3]; listed as KIAA0367-specific PMO): intermediate phenotypic inhibition
GGAGCACGGTCCAGGCGAAGCGCAT (all phosphorodiamidate morpholino (PMO)) [LOX] | fully reversed spindle cell formation | full | Full |  | 
CGCCTCTCATCGCGGTAGCTGCG (all phosphorodiamidate morpholino (PMO); further chemistry not fully specified) [KIT] | fully reversed spindle cell formation | full | Full | substantial inhibition of KSHV-induced cellular proliferation | foci formation / contact-inhibited growth (KSHV-infected DMVEC [6]; listed as c-Kit antisense PMO oligomer): did not develop foci; also recorded: did not progress to spindle cell and foci formation; foci formation / contact-inhibited growth (KSHV-infected DMVEC [6]; listed as c-Kit-specific antisense PMO oligonucleotides): did not develop foci; cells with PMO concentrated in intracellular vesicles (uptake) (immortalized DMVEC): about 70%
GCCGAGGACATTGGGGAGGGAGGCG (all phosphorodiamidate morpholino (PMO)) [LMO2] | little or no affect on KSHV-induced spindle cell formation | none |  |  | 
TGAATAAGCAACAATGTAGCTTCAT (all phosphorodiamidate morpholino (PMO)) [MFAP3] | little or no affect on KSHV-induced spindle cell formation | none | None | relatively little or no significant inhibition | effect on KSHV-induced spindle cell formation / phenotypic inhibition (in words) (KSHV-infected DMVEC [3]; listed as MFAP-specific PMO): no phenotypic inhibition
GGGTCTCCTCGGATCAGGCGCG (all phosphorodiamidate morpholino (PMO)) [INSR] | intermediate inhibitory effects | intermediate | Intermediate | substantial inhibition of KSHV-induced cellular proliferation | 
TTAACTCCCATCCTACGTTTAGTCA (all phosphorodiamidate morpholino (PMO)) [Neuritin] | fully reversed spindle cell formation | full | Full | substantial inhibition of KSHV-induced cellular proliferation | 
GGCAGCCCACTCTCTCGGCAGCATG (all phosphorodiamidate morpholino (PMO)) [IGFBP2] | fully reversed spindle cell formation | full | Full | substantial inhibition of KSHV-induced cellular proliferation | 
